{"source": "patent US20100267561A1", "about": "“HERBICIDAL PYRIDAZINONE DERIVATIVES” (priority 2007, published 2010)", "experiment_in_all_cases": "Test B pre-/postemergence plant response", "assay_type_in_all_cases": "in vivo", "key": {"[1]": {"system": "downy bromegrass (Bromus tectorum)", "conditions": "for Bromegrass, Downy plant response rating: 8 g ai/ha", "procedure,_shortened": "(§1)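 Visual scoring from 0 (no effect) to 100 (complete control) against untreated controls was done 13 to 15 days after greenhouse treatment. Chemicals were formulated in a surfactant-containing non-phytotoxic solvent and applied to soil preemergence or to 1- to 4-leaf (2-18 cm) plants postemergence.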"}, "[2]": {"system": "surinam grass (Brachiaria decumbens)", "conditions": "for Surinam Grass plant response rating: 8 g ai/ha", "procedure,_shortened": "as §1"}, "soybean (Glycine max)": {"system": "soybean (Glycine max)", "conditions": "for Soybean plant response rating: 8 g ai/ha", "procedure,_shortened": "as §1"}, "[3]": {"system": "catchweed bedstraw (Galium aparine)", "conditions": "Preemergence", "procedure,_shortened": "as §1"}, "[4]": {"system": "cocklebur (Xanthium strumarium)", "conditions": "for Cocklebur plant response rating: 8 g ai/ha", "procedure,_shortened": "as §1"}, "[5]": {"system": "common (oilseed) sunflower (Helianthus annuus)", "conditions": "Preemergence", "procedure,_shortened": "as §1"}, "[6]": {"system": "Russian thistle (Salsola iberica)", "conditions": "Preemergence", "procedure,_shortened": "as §1"}, "[7]": {"system": "common ragweed (Ambrosia elation)", "conditions": "for Ragweed plant response rating: 8 g ai/ha", "procedure,_shortened": "as §1"}, "[8]": {"system": "large crabgrass (Digitaria sanguinalis)", "conditions": "for Crabgrass, Large plant response rating: 8 g ai/ha", "procedure,_shortened": "as §1"}, "kochia (Kochia scoparia)": {"system": "kochia (Kochia scoparia)", "conditions": "for Kochia plant response rating: 8 g ai/ha", "procedure,_shortened": "as §1"}, "[9]": {"system": "goosegrass (Eleusine indica)", "conditions": "for Goosegrass plant response rating: 8 g ai/ha", "procedure,_shortened": "as §1"}, "[10]": {"system": "woolly cupgrass (Eriochloa villosa)", "conditions": "for Cupgrass, Woolly plant response rating: 8 g ai/ha", "procedure,_shortened": "as §1"}, "[11]": {"system": "Italian ryegrass (Lolium multiflorum)", "conditions": "for Ryegrass, Italian plant response rating: 8 g ai/ha", "procedure,_shortened": "as §1"}, "[12]": {"system": "pigweed (Amaranthus retroflexus)", "conditions": "for Pigweed plant response rating: 8 g ai/ha", "procedure,_shortened": "as §1"}, "[13]": {"conditions": "Postemergence, 16 g ai/ha, scale 0 to 100"}, "[14]": {"conditions": "Postemergence, 31 g ai/ha, scale 0 to 100, 0 no effect, 100 complete control"}, "[15]": {"conditions": "Postemergence, 62 g ai/ha, scale 0 to 100, 0 no effect, 100 complete control"}, "[16]": {"conditions": "Preemergence, 16 g ai/ha, scale 0 to 100 (0 no effect, 100 complete control)"}, "[17]": {"conditions": "Preemergence, 31 g ai/ha, 0 to 100 scale, 0 no effect, 100 complete control"}, "[18]": {"conditions": "Preemergence, 62 g ai/ha, scale 0 to 100"}, "[19]": {"conditions": "16 g ai/ha, scale 0 to 100 (0 no effect, 100 complete control)"}, "[20]": {"conditions": "31 g ai/ha, 0 to 100 scale, 0 no effect, 100 complete control"}}, "data": [{"smiles": "COC(=O)Oc1cnn(C)c(=O)c1-n1nc(-c2ccc(Cl)cc2)cc1C", "note": "[Compound 33]", "values": [{"measurement": "Bromegrass, Downy plant response rating", "setting": "[1]; postemergence, 0-100 scale", "value": 5}, {"measurement": "Plant response rating, Bromegrass, Downy", "setting": "[1]; [13]", "value": 50}, {"measurement": "Plant response rating, Bromegrass, Downy", "setting": "[1]; [14]", "value": 70}, {"measurement": "Plant response rating, Bromegrass, Downy", "setting": "[1]; [15]", "value": 80}, {"measurement": "Plant response rating, Bromegrass, Downy", "setting": "[1]; [16]", "value": 0}, {"measurement": "Plant response rating, Bromegrass, Downy", "setting": "[1]; [17]", "value": 80}, {"measurement": "Plant response rating, Bromegrass, Downy", "setting": "[1]; [18]", "value": 100}, {"measurement": "Bromegrass, Downy plant response rating", "setting": "[1]; Preemergence, scale 0 to 100", "value": 0}, {"measurement": "Surinam Grass plant response rating", "setting": "[2]; postemergence, 0-100 scale", "value": 85}, {"measurement": "Plant response rating, Surinam Grass", "setting": "[2]; [13]", "value": 100}, {"measurement": "Plant response rating, Surinam Grass", "setting": "[2]; [15]", "value": 100}, {"measurement": "Plant response rating, Surinam Grass", "setting": "[2]; [16]", "value": 90}, {"measurement": "Plant response rating, Surinam Grass", "setting": "[2]; [17]", "value": 98}, {"measurement": "Plant response rating, Surinam Grass", "setting": "[2]; [18]", "value": 100}, {"measurement": "Surinam Grass plant response rating", "setting": "[2]; Preemergence, scale 0 to 100", "value": 75}, {"measurement": "Soybean plant response rating", "setting": "soybean (Glycine max); postemergence, 0-100 scale", "value": 0}, {"measurement": "Plant response rating, Soybean", "setting": "soybean (Glycine max); [13]", "value": 0}, {"measurement": "Plant response rating, Soybean", "setting": "soybean (Glycine max); [15]", "value": 0}, {"measurement": "Plant response rating, Soybean", "setting": "soybean (Glycine max); [16]", "value": 0}, {"measurement": "Plant response rating, Soybean", "setting": "soybean (Glycine max); [17]", "value": 0}, {"measurement": "Plant response rating, Soybean", "setting": "soybean (Glycine max); [18]", "value": 0}, {"measurement": "Soybean plant response rating", "setting": "soybean (Glycine max); Preemergence, scale 0 to 100", "value": 0}, {"measurement": "Plant response rating, Galium", "setting": "[3]; [19]", "value": 0}, {"measurement": "Plant response rating, Galium", "setting": "[3]; [20]", "value": 0}, {"measurement": "Plant response rating, Galium", "setting": "[3]; 62 g ai/ha, scale 0 to 100", "value": 0}, {"measurement": "Galium plant response rating", "setting": "[3]; 8 g ai/ha, scale 0 to 100", "value": 0}, {"measurement": "Cocklebur plant response rating", "setting": "[4]; postemergence, 0-100 scale", "value": 0}, {"measurement": "Plant response rating, Cocklebur", "setting": "[4]; [13]", "value": 0}, {"measurement": "Plant response rating, Cocklebur", "setting": "[4]; [14]", "value": 0}, {"measurement": "Plant response rating, Cocklebur", "setting": "[4]; [15]", "value": 0}, {"measurement": "Plant response rating, Cocklebur", "setting": "[4]; [16]", "value": 0}, {"measurement": "Plant response rating, Cocklebur", "setting": "[4]; [17]", "value": 0}, {"measurement": "Cocklebur plant response rating", "setting": "[4]; Preemergence, scale 0 to 100", "value": 0}, {"measurement": "Plant response rating, Sunflower", "setting": "[5]; [19]", "value": 0}, {"measurement": "Plant response rating, Sunflower", "setting": "[5]; [20]", "value": 0}, {"measurement": "Plant response rating, Sunflower", "setting": "[5]; 62 g ai/ha, scale 0 to 100", "value": 0}, {"measurement": "Sunflower plant response rating", "setting": "[5]; 8 g ai/ha, scale 0 to 100", "value": 0}, {"measurement": "Plant response rating, Russian Thistle", "setting": "[6]; [19]", "value": 0}, {"measurement": "Plant response rating, Russian Thistle", "setting": "[6]; [20]", "value": 0}, {"measurement": "Plant response rating, Russian Thistle", "setting": "[6]; 62 g ai/ha, scale 0 to 100", "value": 80}, {"measurement": "Russian Thistle plant response rating", "setting": "[6]; 8 g ai/ha, scale 0 to 100", "value": 0}, {"measurement": "Ragweed plant response rating", "setting": "[7]; postemergence, 0-100 scale", "value": 0}, {"measurement": "Plant response rating, Ragweed", "setting": "[7]; [13]", "value": 0}, {"measurement": "Plant response rating, Ragweed", "setting": "[7]; [14]", "value": 0}, {"measurement": "Plant response rating, Ragweed", "setting": "[7]; [15]", "value": 0}, {"measurement": "Plant response rating, Ragweed", "setting": "[7]; [16]", "value": 0}, {"measurement": "Plant response rating, Ragweed", "setting": "[7]; [17]", "value": 0}, {"measurement": "Plant response rating, Ragweed", "setting": "[7]; [18]", "value": 0}, {"measurement": "Ragweed plant response rating", "setting": "[7]; Preemergence, scale 0 to 100", "value": 0}, {"measurement": "Crabgrass, Large plant response rating", "setting": "[8]; postemergence, 0-100 scale", "value": 70}, {"measurement": "Plant response rating, Crabgrass, Large", "setting": "[8]; [13]", "value": 90}, {"measurement": "Plant response rating, Crabgrass, Large", "setting": "[8]; [14]", "value": 90}, {"measurement": "Plant response rating, Crabgrass, Large", "setting": "[8]; [15]", "value": 100}, {"measurement": "Plant response rating, Crabgrass, Large", "setting": "[8]; [16]", "value": 95}, {"measurement": "Plant response rating, Crabgrass, Large", "setting": "[8]; [17]", "value": 95}, {"measurement": "Plant response rating, Crabgrass, Large", "setting": "[8]; [18]", "value": 98}, {"measurement": "Crabgrass, Large plant response rating", "setting": "[8]; Preemergence, scale 0 to 100", "value": 70}, {"measurement": "Kochia plant response rating", "setting": "kochia (Kochia scoparia); postemergence, 0-100 scale", "value": 0}, {"measurement": "Plant response rating, Kochia", "setting": "kochia (Kochia scoparia); [13]", "value": 0}, {"measurement": "Plant response rating, Kochia", "setting": "kochia (Kochia scoparia); [14]", "value": 0}, {"measurement": "Plant response rating, Kochia", "setting": "kochia (Kochia scoparia); [15]", "value": 0}, {"measurement": "Plant response rating, Kochia", "setting": "kochia (Kochia scoparia); [17]", "value": 0}, {"measurement": "Plant response rating, Kochia", "setting": "kochia (Kochia scoparia); [18]", "value": 0}, {"measurement": "Kochia plant response rating", "setting": "kochia (Kochia scoparia); Preemergence, scale 0 to 100", "value": 0}, {"measurement": "Goosegrass plant response rating", "setting": "[9]; postemergence, 0-100 scale", "value": 50}, {"measurement": "Plant response rating, Goosegrass", "setting": "[9]; [13]", "value": 70}, {"measurement": "Plant response rating, Goosegrass", "setting": "[9]; [14]", "value": 90}, {"measurement": "Plant response rating, Goosegrass", "setting": "[9]; [15]", "value": 100}, {"measurement": "Plant response rating, Goosegrass", "setting": "[9]; [16]", "value": 98}, {"measurement": "Plant response rating, Goosegrass", "setting": "[9]; [17]", "value": 98}, {"measurement": "Plant response rating, Goosegrass", "setting": "[9]; [18]", "value": 98}, {"measurement": "Goosegrass plant response rating", "setting": "[9]; Preemergence, scale 0 to 100", "value": 85}, {"measurement": "Cupgrass, Woolly plant response rating", "setting": "[10]; postemergence, 0-100 scale", "value": 98}, {"measurement": "Plant response rating, Cupgrass, Woolly", "setting": "[10]; [13]", "value": 100}, {"measurement": "Plant response rating, Cupgrass, Woolly", "setting": "[10]; [14]", "value": 100}, {"measurement": "Plant response rating, Cupgrass, Woolly", "setting": "[10]; [15]", "value": 100}, {"measurement": "Plant response rating, Cupgrass, Woolly", "setting": "[10]; [16]", "value": 90}, {"measurement": "Plant response rating, Cupgrass, Woolly", "setting": "[10]; [17]", "value": 100}, {"measurement": "Plant response rating, Cupgrass, Woolly", "setting": "[10]; [18]", "value": 100}, {"measurement": "Cupgrass, Woolly plant response rating", "setting": "[10]; Preemergence, scale 0 to 100", "value": 80}, {"measurement": "Ryegrass, Italian plant response rating", "setting": "[11]; postemergence, 0-100 scale", "value": 75}, {"measurement": "Plant response rating, Ryegrass, Italian", "setting": "[11]; [13]", "value": 80}, {"measurement": "Plant response rating, Ryegrass, Italian", "setting": "[11]; [14]", "value": 100}, {"measurement": "Plant response rating, Ryegrass, Italian", "setting": "[11]; [15]", "value": 100}, {"measurement": "Plant response rating, Ryegrass, Italian", "setting": "[11]; [16]", "value": 95}, {"measurement": "Plant response rating, Ryegrass, Italian", "setting": "[11]; [17]", "value": 95}, {"measurement": "Plant response rating, Ryegrass, Italian", "setting": "[11]; [18]", "value": 98}, {"measurement": "Ryegrass, Italian plant response rating", "setting": "[11]; Preemergence, scale 0 to 100", "value": 85}, {"measurement": "Pigweed plant response rating", "setting": "[12]; postemergence, 0-100 scale", "value": 0}, {"measurement": "Plant response rating, Pigweed", "setting": "[12]; [13]", "value": 0}, {"measurement": "Plant response rating, Pigweed", "setting": "[12]; [14]", "value": 0}, {"measurement": "Plant response rating, Pigweed", "setting": "[12]; [15]", "value": 0}, {"measurement": "Plant response rating, Pigweed", "setting": "[12]; [16]", "value": 0}, {"measurement": "Plant response rating, Pigweed", "setting": "[12]; [17]", "value": 0}, {"measurement": "Plant response rating, Pigweed", "setting": "[12]; [18]", "value": 0}, {"measurement": "Pigweed plant response rating", "setting": "[12]; Preemergence, scale 0 to 100", "value": 0}]}]}
